Values of other authors as cited in patent publication US20100022590A1, “Novel compounds” (BIOVITRUM AB (publ.), priority 2008, published 2010).

How the values were obtained:
[1] = tested on: intraocular pressure (IOP); conditions: oral administration, healthy volunteers
[2] = tested on: intraocular pressure (IOP); conditions: orally administered, patients with ocular hypertension

## CC1(C)[C@@H](OC(=O)CCC(=O)O)CC[C@]2(C)[C@H]3C(=O)C=C4[C@@H]5C[C@@](C)(C(=O)O)CC[C@]5(C)CC[C@@]4(C)[C@]3(C)CC[C@@H]12 [carbenoxolone]
[1]
  reduction of intraocular pressure (IOP): 20%
[2]
  IOP reduction: 10%
